Target: T1, collagenase obtained from a culture of human synovial fibroblasts (Homo sapiens, UniProt P03956)
T1 construct: endogenous in cells; host or cells: human synovial fibroblast culture (conditioned medium)
T1 sequence (P03956 100-469): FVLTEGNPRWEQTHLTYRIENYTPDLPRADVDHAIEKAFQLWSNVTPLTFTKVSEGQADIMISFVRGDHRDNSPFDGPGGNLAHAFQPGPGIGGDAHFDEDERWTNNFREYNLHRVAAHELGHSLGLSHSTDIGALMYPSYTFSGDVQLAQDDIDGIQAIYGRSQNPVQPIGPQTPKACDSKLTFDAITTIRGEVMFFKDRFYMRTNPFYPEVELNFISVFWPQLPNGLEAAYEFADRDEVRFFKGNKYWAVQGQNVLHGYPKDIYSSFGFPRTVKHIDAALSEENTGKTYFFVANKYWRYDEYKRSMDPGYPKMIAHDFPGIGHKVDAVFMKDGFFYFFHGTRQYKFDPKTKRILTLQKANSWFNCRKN
Experiment: in vitro collagenase inhibiting activity, microtitre plate assay with 14C-acetylated collagen type I from rat tail tendons as substrate
Type: biochemical
Conditions: trypsin-activated pro-collagenase; 14C-acetylated collagen type I substrate; concentration reducing substrate cleavage and solubilization to 50%

Row | IC50 [nM] | SMILES
1 | 2.5 | CN1C(=O)N(CC(C(=O)NO)[C@@H](CC2CCC2)C(=O)N2CCC(O)CC2)C(=O)C1(C)C (single isomer, unassigned) [Example 5, 1-[3-cyclobutyl-2(R)-[1(R or S)-(hydroxycarbamoyl)-2-(3,4,4-trimethyl-2,5-dioxo-1-imidazolidinyl)ethyl]propionyl]-4-piperidinol]
2 | 6.5 | CN1C(=O)N(CC(C(=O)NO)[C@@H](CC2CCCC2)C(=O)N2CCC(O)CC2)C(=O)C1(C)C (single isomer, unassigned) [Example 7, 1-[3-cyclopentyl-2[(R)-[1(R or S)-(hydroxycarbamoyl)-2-(3,4,4-trimethyl-2,5-dioxo-1imidazolidinyl)ethyl]propionyl]-4-piperidinol]
3 | 18 | CN1C(=O)N(CC(C(=O)NO)[C@@H](CC2CC2)C(=O)N2CCC(O)CC2)C(=O)C1(C)C (single isomer, unassigned) [Example 2, 1-[3-cyclopropyl-2-(R)-[1(R or S)-(hydroxycarbamoyl)-2-(3,4,4-trimethyl-2,5-dioxo-1-imidazolidinyl)ethyl]propionyl]-4-piperidinol]

Further lines, the molecule ahead of its results:

Row | SMILES | IC50 [nM]
4 | CNC(=O)[C@H]1N(C(=O)[C@H](CC2CCCC2)C(CN2C(=O)N(C)C(C)(C)C2=O)C(=O)NO)CSC1(C)C (single isomer, unassigned) [Example 17, 3-[3-cyclopentyl-2(R)-[1(R or S)-(hydroxycarbamoyl)-2-(3,4,4-trimethyl-2,5-dioxo-1imidazolidinyl)ethyl]propionyl]-N,5,5-trimethyl-4(R)-thiazolidinecarboxamide] | 2.35
5 | CN1C(=O)N(CC(C(=O)NO)[C@@H](CC2CCC2)C(=O)N2CCCCC2)C(=O)C1(C)C (single isomer, unassigned) [Example 4, 1-[3-cyclobutyl-2(R)-[1(R or S)-(hydroxycarbamoyl)-2-(3,4,4-trimethyl-2,5-dioxo-1-imidazolidinyl)ethyl]propionyl]piperidine] | 7
6 | CN1C(=O)N(CC(C(=O)NO)[C@@H](CC2CCCC2)C(=O)N2CCOCC2)C(=O)C1(C)C (single isomer, unassigned) [Example 16, 4-[3-cyclopentyl-2(R)-[1(R or S)-(hydroxycarbamoyl)-2-(3,4,4-trimethyl-2,5-dioxo-1-imidazolidinyl)ethyl]propionyl]morpholine] | 4.1
7 | CN1C(=O)N(CC(C(=O)NO)[C@@H](CC2CCC2)C(=O)N2CCCCCCC2)C(=O)C1(C)C (single isomer, unassigned) [Example 23, 1-[3-cyclobutyl-2(R)-[1(R or S)-(hydroxycarbamoyl)-2-(3,4,4-trimethyl-2,5-dioxo-1-imidazolidinyl)ethyl]propionyl]octahydroazocine] | 34

— patent publication US5614625A, “Hydroxamic acid derivatives with tricyclic substitution” (Hoffmann-La Roche Inc., priority 1994, dated 1997)
